Source: patent publication EP3539969A1, “NOVEL PHOTO-INITIATORS AND THEIR APPLICATION” (ETH Zurich, priority 2018, dated 2019)
Counter-ions that a name gives are not always drawn. Like-named read-outs stand apart in the source and are kept apart here.

Experiments:
[1] = 25°C
Experimental: To determine the solubility, small samples of the respective substance were exactly weighed to Eppendorf tubes. Upon shanking at an Eppendorf thermomixer (25 C @ 1400 rpm), water is added until the whole samples was homogenously dissolved.

[2] = for ε405: λ = 405 nm
Experimental: To compare photobleaching, 0.25 mM solutions of ^PhBAPO-ONBu4 and ^MesBAPO-ONBu4 were prepared in THF. UV-Vis spectra were recorded in 2 mm quartz cuvettes prior and after 15 min of irradiation with 265 nm (Lumos 43 LED reactor, Atlas Photonics). Spectra have been smoothed (adjacent averaging, points of window: 5).

[3] = for irradiation time to complete photolysis: 405 nm LED, 80 mM in CD3CN, diphenyl disulfide (3 eq.)
Source text: The photolysis has been followed by ^31P NMR. […] The results are further illustrated by Fig. 2

[4] = for integral rel. to TPP / integral rel. to t = 0: protected from light
Experimental: To determine the stability of ^PhBAPO-ONBu4 against hydrolysis, 10 mg were dissolved in 0.6 mL of D2O in a NMR tube protected from light. […] Table 1: Integrals of 31P NMR signals of PhBAPO-ONBu4 relative to TPP as external standard for integration over time.

SMILES: Cc1cc(C)c(C(=O)P(=O)(O)C(=O)c2c(C)cc(C)cc2C)c(C)c1 [^MesBAPO-ONBu4, bis(mesitoyl)phosphinic acid tetrabutylammonium salt, reference compound]
- solubility in water [1]: 3.5 mg/mL
- λmax (longest wave absorption) ([2]; THF): 373 nm
- ε ([2]; λ = 244 nm): 5935±72 Lmol^-1cm^-1
- ε ([2]; λ = 265 nm (LED wavelength)): 3368±88 Lmol^-1cm^-1
- ε ([2]; λ = 359 nm): 211±3 Lmol^-1cm^-1
- ε ([2]; λ = 365 nm (LED wavelength)): 216±4 Lmol^-1cm^-1
- ε405 [2]: 64 Lmol^-1cm^-1
- irradiation time to complete photolysis [3]: over 12 min

SMILES: O=C(c1ccccc1)P(=O)(O)C(=O)c1ccccc1 [^PhBAPO-ONBu4, bis(benzoyl)phosphinic acid tetrabutylammonium salt]
- solubility in water [1]: 17.2 mg/mL
- half-life [4]: 51.4 days
- half time ([4]; hydrolysis in D2O): 51 days
- t1 (exponential fitting of the decay, y = e^-x/t1) ([4]; hydrolysis in D2O, over 84 days): 74.2 ± 1.8 days
- integral rel. to TPP ([4]; t = 0 d, 10 mg in 0.6 mL D2O): 4.24
- integral rel. to t = 0 ([4]; t = 0 d, D2O): 1
- integral rel. to TPP ([4]; t = 4 d, D2O): 4.02
- integral rel. to t = 0 ([4]; t = 4 d, D2O): 0.9481
- integral rel. to TPP ([4]; t = 5 d, D2O): 4.02
- integral rel. to t = 0 ([4]; t = 5 d, D2O): 0.9481
- integral rel. to TPP ([4]; t = 14 d, D2O): 3.46
- integral rel. to t = 0 ([4]; t = 14 d, D2O): 0.816
- integral rel. to TPP ([4]; t = 29 d, D2O): 2.98
- integral rel. to t = 0 ([4]; t = 29 d, D2O): 0.7028
- integral rel. to TPP ([4]; t = 56 d, D2O): 1.98
- integral rel. to t = 0 ([4]; t = 56 d, D2O): 0.467
- integral rel. to TPP ([4]; t = 84 d, D2O): 1.31
- integral rel. to t = 0 ([4]; t = 84 d, D2O): 0.309
- photobleaching ([2]; 0.25 mM in THF, 15 min irradiation with 265 nm): only colourless photoproducts are formed
- red shift of λmax compared to ^MesBAPO-ONBu4 ([2]; THF): about 20 nm
- λmax (longest wave absorption) ([2]; THF): 394 nm
- ε ([2]; λ = 235 nm): 16957±1372 Lmol^-1cm^-1
- ε ([2]; λ = 265 nm (LED wavelength)): 3424±88 Lmol^-1cm^-1
- ε ([2]; λ = 365 nm (LED wavelength)): 106±2 Lmol^-1cm^-1
- ε ([2]; λ = 394 nm): 171±4 Lmol^-1cm^-1
- ε405 [2]: 154 Lmol^-1cm^-1
- irradiation time to complete photolysis [3]: ≤ 6 min
- photoactivity relative to ^MesBAPO-ONBu4 ([3]; 405 nm irradiation): at least twice as photoactive as ^MesBAPO-ONBu4
